Experimental data reported in patent publication US20200000816A1, “COMPOUND HAVING SOMATOSTATIN RECEPTOR AGONISTIC ACTIVITY AND PHARMACEUTICAL USE THEREOF” (ONO PHARMACEUTICAL CO., LTD., priority 2017, published 2020).

Assays:
human SSTR2 = biological target: T1, human SSTR2 (Homo sapiens, UniProt P30874); test: Evaluation of SSTR2 agonistic activity using cells expressing human SSTR2 (suppression of forskolin-stimulated cAMP production, SSTR2-CHO-K1); assay type: cell-based; conditions: suppression of cAMP production by forskolin stimulation, 1000 nmol/L octreotide = 100%
T1 construct: Myc; expressed in transfected cells

hERG K+ channel = biological target: T2, hERG K+ channel (Homo sapiens, UniProt Q12809); test: Evaluation of hERG K+ channel inhibitory activity using cells expressing human ERG (automated patch-clamp, CHO-K1); assay type: cell-based; conditions: CHO-K1 cells with human ERG gene, tested at 1, 3 and 10 μmol/L, 5-minute incubation
T2 construct: expressed in transfected cells; host or cells: CHO-K1
Method: Evaluation of hERG K^+ Channel Inhibitory Activity Using Cells Expressing Human ERG
CHO-K1 cells having the human ERG gene (ether-a-go-go related gene) introduced therein were subcultured in an F-12 medium [F-12 Nutrient Mixture (HAM)] containing 10% inactivated foetal bovine serum, 100 IU/mL penicillin-100 μg/mL streptomycin and 200 μg/mL geneticin.
Patch-clamp was performed in a full-automated manner using CHO-K1 cells having the human ERG gene introduced therein and having a perforated patch formed therein with amphotericin B. For the experiment, a 384-well PatchPlate™ was used and the cell suspension and compounds were added thereto. The IKr current was measured with command voltages of holding potential of −80 mV, depolarization potential of +40 mV (2 seconds) and repolarization potential of −50 mV (2 seconds). The stimulation frequency was twice (single pulse stimulations) before and after the treatment with a drug (the concentrations of a compound for evaluation were 1, 3 and 10 μmol/L, a 5-minute incubation), and the Ikr maximum current was measured. The inhibition (%) on the CHO-K1 cells having the human ERG gene introduced therein was determined by correcting the variation in the maximum tail current before and after addition of the test substance by the variation thereof in the group treated with a medium (inhibition (%)=(1-variation in current before and after addition of a test substance/variation in current before and after addition of a medium)×100). The 50% inhibitory concentration (IC50 value) was calculated from a line connecting two points on both sides of the inhibition of 50%.

[1] = tested on: Chinese hamster lung-derived CHL/IU cells; test: Evaluation of phospholipidosis induction ability using cultured cell line (NBD-PE incorporation); assay type: cell-based; conditions: 24 hours, positive = 25% or more of amiodarone maximum reaction at cell viability 50% or more; for phospholipidosis induction ability (judgement): 6.25-100 μmol/L
Method: Chinese hamster lung-derived CHL/IU cells were suspended in an MEM-E culture solution containing non-essential amino acids, sodium pyruvate and 10% foetal bovine serum and seeded in a 96-well plate. The cells cultured overnight in an incubator (5% carbon dioxide, 95% air, 37° C.) were further cultured for 24 hours after replacing the culture solution with a culture solution containing 6.25, 12.5, 25, 50 or 100 μmol/L of a test substance and NBD-PE (fluorescence label N-(7-nitrobenz-2-oxa-1,3-diazol-4-yl)-1,2-dihexadecanoyl-sn-glycero-3-phosphoethanolamine triethylammonium salt) obtained from Molecular Probes. The phospholipidosis induction ability was evaluated by measuring the concentration of NBD-PE incorporated into the cells. Specifically, the cells were washed twice with PBS and then measured for the fluorescence of NBD-PE (excitation wavelength: 485 nm, fluorescence wavelength: 535 nm) incorporated in the cells on a SpectraMax plate reader available from Molecular Devices, LLC. for evaluation. After measurement of the fluorescence of NBD-PE, the cell viability was evaluated with Premix WST-1 Cell Proliferation Assay System available from TaKaRa Bio Inc. The phospholipidosis induction ability was judged to be positive when, at a dose that provided a cell viability of 50% or more, the reaction (the concentration of NBD-PE incorporated after administration of a test substance) was 25% or more of the maximum reaction of a positive control amiodarone (the concentration of NBD-PE incorporated into the cells after administration of amiodarone was regarded as 100%).

GH secretion = test: Evaluation of suppression of growth hormone (GH) secretion using rats (GHRH-induced); assay type: in vivo; conditions: Rattus norvegicus, 5 min, oral, dosage of 1 mg/kg, GHRH given 8 hours after dosing, blood GH 5 minutes after GHRH
Method: A medium (distilled water (Otsuka distilled water, Otsuka Pharmaceutical Factory, Inc.)) or a test compound dissolved in the medium was orally administered to rats (7-week old male Crl:CD(SD) IGS rats (Charles River Laboratories Japan, Inc.)) and after 7 hours and 57 minutes, the animals were administered with 50 mg/kg of pentobarbital sodium (Somnopentyl, Kyoritsu Seiyaku Corporation) via the tail vein for anaesthesia. Three minutes after administration of pentobarbital sodium, the rats were administered with 0.01 mg/kg of growth hormone-releasing hormone (GHRH, Bachem) via the tail vein to induce GH secretion. In order to measure the blood GH concentration, 0.2 mL of blood was collected through the jugular vein at 5 minutes after administration of GHRH. The collected blood was centrifuged at 4° C., 13,000×g for 5 minutes to obtain plasma. The blood GH concentration was measured by using Rat/Mouse Growth Hormone ELISA (Millipore) following the instruction of the kit. The percentage (%) of suppression of GH secretion was determined by using the obtained blood GH concentration and the equation {[suppression (%) of GH secretion]=([blood GH concentration of the group administered with the medium]−[blood GH concentration of the group administered with a test compound])/[blood GH concentration of the group administered with the medium]×100}. In the equation, the group administered with the medium represents the group of animals administered with the medium and the group administered with a test compound represents the group of animals administered with a test compound dissolved in the medium.

[2] = biological target: somatostatin receptor subtype 2 (SSTR2) (Homo sapiens, UniProt P30874); conditions: reported in background art; cited from earlier work
[3] = biological target: somatostatin receptor subtype 3 (SSTR3) (Homo sapiens, UniProt P32745); conditions: reported in background art; cited from earlier work
[4] = biological target: somatostatin receptor subtype 1 (SSTR1) (Homo sapiens, UniProt P30872); conditions: reported in background art; cited from earlier work
[5] = biological target: somatostatin receptor subtype 4 (SSTR4) (Homo sapiens, UniProt P31391); conditions: reported in background art; cited from earlier work
gastric acid secretion = test: Evaluation of suppression of gastric acid secretion using rats (pyloric ligation); assay type: in vivo, rat; conditions: continuous intravenous administration, 1 μg/kg/h

T2 sequence (Q12809 whole entry): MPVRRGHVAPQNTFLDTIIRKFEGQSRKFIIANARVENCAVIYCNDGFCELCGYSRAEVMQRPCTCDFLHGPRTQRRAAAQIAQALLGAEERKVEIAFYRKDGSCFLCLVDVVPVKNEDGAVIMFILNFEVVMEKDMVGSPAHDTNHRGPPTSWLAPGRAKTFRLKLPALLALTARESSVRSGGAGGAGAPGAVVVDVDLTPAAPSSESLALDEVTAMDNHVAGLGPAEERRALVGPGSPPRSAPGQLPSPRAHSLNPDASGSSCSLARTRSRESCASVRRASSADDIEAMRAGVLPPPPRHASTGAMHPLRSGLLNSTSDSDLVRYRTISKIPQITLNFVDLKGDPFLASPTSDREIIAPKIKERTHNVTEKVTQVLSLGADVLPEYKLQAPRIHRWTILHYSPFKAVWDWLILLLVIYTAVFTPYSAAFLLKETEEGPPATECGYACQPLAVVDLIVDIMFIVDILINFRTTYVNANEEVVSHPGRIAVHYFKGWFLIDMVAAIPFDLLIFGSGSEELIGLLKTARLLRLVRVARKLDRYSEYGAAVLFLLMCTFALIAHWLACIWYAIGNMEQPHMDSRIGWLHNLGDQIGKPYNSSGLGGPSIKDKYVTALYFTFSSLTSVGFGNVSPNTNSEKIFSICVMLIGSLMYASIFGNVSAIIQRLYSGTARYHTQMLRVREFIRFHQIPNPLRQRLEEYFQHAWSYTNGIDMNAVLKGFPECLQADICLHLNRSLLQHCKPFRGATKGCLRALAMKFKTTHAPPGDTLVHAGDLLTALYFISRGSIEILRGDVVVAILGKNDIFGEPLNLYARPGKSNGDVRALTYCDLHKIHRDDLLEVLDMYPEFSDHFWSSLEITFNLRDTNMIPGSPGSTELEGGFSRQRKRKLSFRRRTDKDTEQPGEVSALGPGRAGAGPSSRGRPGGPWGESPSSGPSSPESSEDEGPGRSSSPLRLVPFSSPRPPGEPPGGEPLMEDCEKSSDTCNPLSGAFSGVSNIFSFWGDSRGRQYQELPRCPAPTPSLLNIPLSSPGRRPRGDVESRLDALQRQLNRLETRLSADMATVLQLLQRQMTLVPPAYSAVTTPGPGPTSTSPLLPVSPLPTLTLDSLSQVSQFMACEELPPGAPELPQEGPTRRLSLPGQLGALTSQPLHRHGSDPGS
T1 sequence (P30874 whole entry): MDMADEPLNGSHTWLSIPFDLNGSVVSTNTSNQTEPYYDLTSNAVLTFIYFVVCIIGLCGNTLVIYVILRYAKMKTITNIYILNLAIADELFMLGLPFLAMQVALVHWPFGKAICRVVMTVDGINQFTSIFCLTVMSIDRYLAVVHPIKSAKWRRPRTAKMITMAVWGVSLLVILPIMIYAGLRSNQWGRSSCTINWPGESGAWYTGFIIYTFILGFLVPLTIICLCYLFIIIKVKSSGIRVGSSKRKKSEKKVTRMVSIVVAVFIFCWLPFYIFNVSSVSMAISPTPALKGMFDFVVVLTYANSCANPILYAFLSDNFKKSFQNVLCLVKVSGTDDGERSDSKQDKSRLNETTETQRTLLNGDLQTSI
Chain of somatostatin receptor subtype 3 (SSTR3) (P32745 whole entry, species assumed): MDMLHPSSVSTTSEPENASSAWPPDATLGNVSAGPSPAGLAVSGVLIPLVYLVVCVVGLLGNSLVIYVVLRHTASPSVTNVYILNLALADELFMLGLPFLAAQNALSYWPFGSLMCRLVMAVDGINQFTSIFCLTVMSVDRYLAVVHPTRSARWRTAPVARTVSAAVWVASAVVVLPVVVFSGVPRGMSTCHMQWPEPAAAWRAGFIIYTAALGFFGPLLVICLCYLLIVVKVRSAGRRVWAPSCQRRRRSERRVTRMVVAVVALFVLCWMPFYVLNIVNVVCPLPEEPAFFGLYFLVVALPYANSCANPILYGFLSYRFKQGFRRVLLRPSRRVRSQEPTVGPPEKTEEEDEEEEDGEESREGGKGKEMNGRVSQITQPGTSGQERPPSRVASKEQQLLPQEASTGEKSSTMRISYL
Chain of somatostatin receptor subtype 1 (SSTR1) (P30872 whole entry, species assumed): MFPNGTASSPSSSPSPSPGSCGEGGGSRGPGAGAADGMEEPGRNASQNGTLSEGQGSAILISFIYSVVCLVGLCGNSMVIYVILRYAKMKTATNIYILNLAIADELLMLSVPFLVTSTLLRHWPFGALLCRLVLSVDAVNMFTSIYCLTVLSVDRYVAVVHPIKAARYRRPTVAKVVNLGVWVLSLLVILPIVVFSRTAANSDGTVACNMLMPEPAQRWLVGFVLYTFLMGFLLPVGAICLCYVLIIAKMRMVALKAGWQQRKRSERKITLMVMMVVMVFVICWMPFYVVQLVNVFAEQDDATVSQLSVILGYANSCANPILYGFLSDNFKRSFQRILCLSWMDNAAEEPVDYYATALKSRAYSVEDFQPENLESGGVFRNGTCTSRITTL
Chain of somatostatin receptor subtype 4 (SSTR4) (P31391 whole entry, species assumed): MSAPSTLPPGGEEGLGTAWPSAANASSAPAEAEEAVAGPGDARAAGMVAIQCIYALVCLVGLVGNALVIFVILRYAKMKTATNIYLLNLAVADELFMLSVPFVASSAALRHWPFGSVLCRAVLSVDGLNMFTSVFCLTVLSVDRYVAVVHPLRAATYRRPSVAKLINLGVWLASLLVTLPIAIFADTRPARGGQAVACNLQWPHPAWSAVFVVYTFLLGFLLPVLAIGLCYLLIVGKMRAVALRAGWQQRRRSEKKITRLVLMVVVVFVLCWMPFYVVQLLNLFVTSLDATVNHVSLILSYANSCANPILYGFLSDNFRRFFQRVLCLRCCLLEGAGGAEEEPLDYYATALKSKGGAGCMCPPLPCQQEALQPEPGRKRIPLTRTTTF
Chain of somatostatin receptor subtype 2 (SSTR2) (P30874 whole entry, species assumed): as the sequence (P30874 whole entry) above

**Q.** Which EC50 (human SSTR2) does the source give for `COC(=O)c1cc(F)cc2nc(-c3cncc(-c4cc(F)ccc4F)c3N3CC[C@@H](N)[C@@H](O)C3)[nH]c12` [Example 4(16), Methyl 2-{4-[(3S,4R)-4-amino-3-hydroxy-1-piperidinyl]-5-(2,5-difluorophenyl)-3-pyridinyl}-5-fluoro-1H-benzimidazole-7-carboxylate] here?
**A.** The EC50 was 0.005 nM.

**Q.** And the IC50 (hERG K+ channel)?
**A.** Its IC50 is 3900 nM.

**Q.** What about the “concentration at which judged to be positive in phospholipidosis induction ability” value [1] of the same compound?
**A.** The value was 25 µM.

**Q.** And the inhibition in vivo at 1 mg/kg (GH secretion)?
**A.** The inhibition in vivo at 1 mg/kg was 67%.

**Q.** Which results are given for `CCN[C@@H]1CCN(c2c(-c3nc4cc(F)c(F)cc4[nH]3)cncc2-c2cc(F)ccc2F)C[C@@H]1O` [Example 5(4), (3S,4R)-1-[3-(5,6-difluoro-1H-benzimidazol-2-yl)-5-(2,5-difluorophenyl)-4-pyridinyl]-4-(ethylamino)-3-piperidinol]?
**A.** EC50 (human SSTR2): 0.031 nM; IC50 (hERG K+ channel): 8400 nM; phospholipidosis induction ability (judgement) [1]: negative; inhibition in vivo at 1 mg/kg (GH secretion): 90%

**Q.** Which EC50 (human SSTR2) does the source give for `COc1cc2nc(-c3cncc(-c4cc(F)cc(F)c4)c3N3CC[C@@H](NCCC(F)(F)F)[C@@H](O)C3)[nH]c2cc1F` [Example 5(6), (3S,4R)-1-[3-(3,5-difluorophenyl)-5-(6-fluoro-5-methoxy-1H-benzimidazol-2-yl)-4-pyridinyl]-4-[(3,3,3-trifluoropropyl)amino]-3-piperidinol] here?
**A.** Its EC50 is 0.067 nM.

**Q.** And the IC50 (hERG K+ channel)?
**A.** Its IC50 is ≥ 10000 nM.

**Q.** What about the “phospholipidosis induction ability (judgement)” value [1] of the same compound?
**A.** Its value is “negative”.

**Q.** And the inhibition in vivo at 1 mg/kg (GH secretion)?
**A.** Its inhibition in vivo at 1 mg/kg is 83%.

**Q.** What does the source list for `O[C@H]1CN(c2c(-c3cc(F)cc(F)c3)cncc2-c2nc3cc(F)c(F)cc3[nH]2)CC[C@H]1NC1COC1` [Example 5, (3S,4R)-1-[3-(5,6-difluoro-1H-benzimidazol-2-yl)-5-(3,5-difluorophenyl)-4-pyridinyl]-4-(3-oxetanylamino)-3-piperidinol]?
**A.** EC50 (human SSTR2): 0.14 nM; IC50 (hERG K+ channel): 7600 nM; phospholipidosis induction ability (judgement) [1]: negative; inhibition in vivo at 1 mg/kg (GH secretion): 92%

**Q.** Which “binding affinity to SSTR2” value [2] does the source give for `CC(C)[C@@H]1NC(=O)[C@H](CCCCN)NC(=O)[C@@H](Cc2c[nH]c3ccccc23)NC(=O)[C@H](Cc2ccc(O)cc2)NC(=O)[C@@H](NC(=O)[C@H](N)Cc2ccc3ccccc3c2)CSSC[C@@H](C(=O)N[C@H](C(N)=O)[C@@H](C)O)NC1=O` [lanreotide acetate] here?
**A.** Its value is “high affinity”.

**Q.** What about the “binding affinity to SSTR3” value [3] of the same compound?
**A.** The value was “moderate affinity”.

**Q.** And the “binding to SSTR1” value [4]?
**A.** The value was “do not bind”.

**Q.** And the “binding to SSTR4” value [5]?
**A.** The value was “do not bind”.

**Q.** For `C[C@@H](O)[C@@H]1NC(=O)[C@H](CCCCN)NC(=O)[C@@H](Cc2c[nH]c3ccccc23)NC(=O)[C@H](Cc2ccccc2)NC(=O)[C@@H](NC(=O)[C@H](N)Cc2ccccc2)CSSC[C@@H](C(=O)N[C@H](CO)[C@@H](C)O)NC1=O` [octreotide], which “percentage of suppression of gastric acid secretion” value (gastric acid secretion) is on record?
**A.** Its value is 39%.
